Assay results taken from publication PMC10477861, “Efficient Mining of Anticancer Peptides from Gut Metagenome” (Advanced Science, 2023).

Assays:
Details in all cases: 25 µM pACP, 24 h, maintenance medium 1% FBS, ratio of viability to vehicle (PBS), at least three technical repetitions
HT29 = test: MTT primary screening of anticancer activity, HT29; format: cell-based, Human
Excerpt: (§1) We successfully chemically synthesized 40 pACPs for the purpose of in vitro or in vivo characterization of their potential anticancer efficacy. In the initial step, we conducted an in vitro primary screen of these 40 pACPs using a panel of 16 different cancer cell lines, including four human CRC lines (HT29, Caco2, HCT116, and […]), as well as 12 other cancer models (Table S4, Supporting Information). We deliberately selected a diverse panel of cell lines to assess the effect of pACPs across various genetic backgrounds. Briefly, the cancer cells were cultured in specific media (details provided in the Experimental Section) and then treated with pACPs at a final concentration of 25 µM. Peptides with minimum effective inhibition concentrations >25 µM were considered non‐ACPs. After exposure to pACPs, the survival rate of the cancer cells was measured using the MTT assay. Remarkably, 39 out of the 40 pACPs (97.5%) induced at least 20% inhibition in at least one cell line (Figure 3a and Table S5, Supporting Information). […] Thus, our method successfully identified pACPs with a very high rate of anticancer effects across various cancer cell lines.
(§2) To evaluate the activity of the 40 potentially effective pACPs, a panel of 16 cancer cell lines was treated, including human CRC cell lines (HT29, Caco‐2, HCT116). Details of the cell lines used, respective media, and culture conditions were presented in Table S1 (Supporting Information). Once the cells reached 60% confluence, it was incubated with each candidate peptide at a concentration of 25 µM pACPs for 24 h. Concurrently, the complete medium was replaced with a maintenance medium containing only 1% FBS. Subsequently, the viability of each cell line using the MTT Cell Proliferation and Cytotoxicity Assay Kit according to the manufacturer's instructions was assessed. […] For the CRC cell line CT26, it was calculated the CC50 value using two peptides (pACP1780 and pACP2283) with relevant data presented in Table S6 (Supporting Information). The calculation was performed using an online tool: https://www.aatbio.com/tools/ic50‐calculator.

Caco2 = test: MTT primary screening of anticancer activity, Caco2; format: cell-based, Human
Excerpt: as §1, §2

HCT116 = test: MTT primary screening of anticancer activity, HCT116; format: cell-based, Human
Excerpt: as §1, §2

CT26 = test: MTT primary screening of anticancer activity, CT26; format: cell-based, Murine
Excerpt: as §1, §2

MDA-MB-231 = test: MTT primary screening of anticancer activity, MDA-MB-231; format: cell-based
Excerpt: as §1, §2

MDA-MB-436 = test: MTT primary screening of anticancer activity, MDA-MB-436; format: cell-based
Excerpt: as §1, §2

MDA-MB-453 = test: MTT primary screening of anticancer activity, MDA-MB-453; format: cell-based
Excerpt: as §1, §2

MDA-MB-468 = test: MTT primary screening of anticancer activity, MDA-MB-468; format: cell-based
Excerpt: as §1, §2

SK-BR-3 = test: MTT primary screening of anticancer activity, SK-BR-3; format: cell-based
Excerpt: as §1, §2

BT474 = test: MTT primary screening of anticancer activity, BT474; format: cell-based
Excerpt: as §1, §2

T47D = test: MTT primary screening of anticancer activity, T47D; format: cell-based
Excerpt: as §1, §2

EFM192A = test: MTT primary screening of anticancer activity, EFM192A; format: cell-based
Excerpt: as §1, §2

B16 = test: MTT primary screening of anticancer activity, B16; format: cell-based, Mouse
Excerpt: as §1, §2

MCF7 = test: MTT primary screening of anticancer activity, MCF7; format: cell-based
Excerpt: as §1, §2

Hela = test: MTT primary screening of anticancer activity, Hela; format: cell-based, Human
Excerpt: as §1, §2

LCC = test: MTT primary screening of anticancer activity, LCC; format: cell-based
Excerpt: as §1, §2

NLTPPSRRATSPIFCVAKHRGGVCECPTIPQGIGEGVKGHSPFEVEG [pACP1349]
Survival rate of cancer cells in primary screening (HT29): 1.00
Survival rate of cancer cells in primary screening (Caco2): 1.00
Survival rate of cancer cells in primary screening (HCT116): 1.00
Survival rate of cancer cells in primary screening (CT26): 1.00
Survival rate of cancer cells in primary screening (MDA-MB-231): 1.00
Survival rate of cancer cells in primary screening (MDA-MB-436): 1.00
Survival rate of cancer cells in primary screening (MDA-MB-453): 1.00
Survival rate of cancer cells in primary screening (MDA-MB-468): 1.00
Survival rate of cancer cells in primary screening (SK-BR-3): 1.00
Survival rate of cancer cells in primary screening (BT474): 1.00
Survival rate of cancer cells in primary screening (T47D): 0.62
Survival rate of cancer cells in primary screening (EFM192A): 1.00
Survival rate of cancer cells in primary screening (B16): 0.66
Survival rate of cancer cells in primary screening (MCF7): 1.00
Survival rate of cancer cells in primary screening (Hela): 1.00
Survival rate of cancer cells in primary screening (LCC): 1.00

NQRKRTACDRRRSICDERIAAGICKRNFRCKKYLKINGTIGLSIRLGKLG [pACP1381]
Survival rate of cancer cells in primary screening (HT29): 0.69
Survival rate of cancer cells in primary screening (Caco2): 0.69
Survival rate of cancer cells in primary screening (HCT116): 1.00
Survival rate of cancer cells in primary screening (CT26): 1.00
Survival rate of cancer cells in primary screening (MDA-MB-231): 1.00
Survival rate of cancer cells in primary screening (MDA-MB-436): 1.00
Survival rate of cancer cells in primary screening (MDA-MB-453): 1.00
Survival rate of cancer cells in primary screening (MDA-MB-468): 1.00
Survival rate of cancer cells in primary screening (SK-BR-3): 1.00
Survival rate of cancer cells in primary screening (BT474): 1.00
Survival rate of cancer cells in primary screening (T47D): 1.00
Survival rate of cancer cells in primary screening (EFM192A): 1.00
Survival rate of cancer cells in primary screening (B16): 0.76
Survival rate of cancer cells in primary screening (MCF7): 1.00
Survival rate of cancer cells in primary screening (Hela): 1.00
Survival rate of cancer cells in primary screening (LCC): 1.00

NSFCRQTALCSVALGQYRTKIVRQMRRQIFRQMKQKAE [pACP1403]
Survival rate of cancer cells in primary screening (HT29): 1.00
Survival rate of cancer cells in primary screening (Caco2): 1.00
Survival rate of cancer cells in primary screening (HCT116): 1.00
Survival rate of cancer cells in primary screening (CT26): 1.00
Survival rate of cancer cells in primary screening (MDA-MB-231): 1.00
Survival rate of cancer cells in primary screening (MDA-MB-436): 1.00
Survival rate of cancer cells in primary screening (MDA-MB-453): 1.00
Survival rate of cancer cells in primary screening (MDA-MB-468): 0.73
Survival rate of cancer cells in primary screening (SK-BR-3): 1.00
Survival rate of cancer cells in primary screening (BT474): 1.00
Survival rate of cancer cells in primary screening (T47D): 0.71
Survival rate of cancer cells in primary screening (EFM192A): 1.00
Survival rate of cancer cells in primary screening (B16): 1.00
Survival rate of cancer cells in primary screening (MCF7): 1.00
Survival rate of cancer cells in primary screening (Hela): 1.00
Survival rate of cancer cells in primary screening (LCC): 1.00

NTGGIQKIQPLRKTDPLLAPCVSGRIGCPGRRCS [pACP1412]
Survival rate of cancer cells in primary screening (HT29): 1.00
Survival rate of cancer cells in primary screening (Caco2): 1.00
Survival rate of cancer cells in primary screening (HCT116): 1.00
Survival rate of cancer cells in primary screening (CT26): 1.00
Survival rate of cancer cells in primary screening (MDA-MB-231): 1.00
Survival rate of cancer cells in primary screening (MDA-MB-436): 1.00
Survival rate of cancer cells in primary screening (MDA-MB-453): 1.00
Survival rate of cancer cells in primary screening (MDA-MB-468): 1.00
Survival rate of cancer cells in primary screening (SK-BR-3): 1.00
Survival rate of cancer cells in primary screening (BT474): 1.00
Survival rate of cancer cells in primary screening (T47D): 0.74
Survival rate of cancer cells in primary screening (EFM192A): 1.00
Survival rate of cancer cells in primary screening (B16): 0.80
Survival rate of cancer cells in primary screening (MCF7): 1.00
Survival rate of cancer cells in primary screening (Hela): 1.00
Survival rate of cancer cells in primary screening (LCC): 1.00

PPSTRIISKVYPFKKHARGGWAIPGMMCSQMVER [pACP1472]
Survival rate of cancer cells in primary screening (HT29): 1.00
Survival rate of cancer cells in primary screening (Caco2): 1.00
Survival rate of cancer cells in primary screening (HCT116): 1.00
Survival rate of cancer cells in primary screening (CT26): 1.00
Survival rate of cancer cells in primary screening (MDA-MB-231): 1.00
Survival rate of cancer cells in primary screening (MDA-MB-436): 1.00
Survival rate of cancer cells in primary screening (MDA-MB-453): 1.00
Survival rate of cancer cells in primary screening (MDA-MB-468): 0.76
Survival rate of cancer cells in primary screening (SK-BR-3): 1.00
Survival rate of cancer cells in primary screening (BT474): 1.00
Survival rate of cancer cells in primary screening (T47D): 1.00
Survival rate of cancer cells in primary screening (EFM192A): 1.00
Survival rate of cancer cells in primary screening (B16): 1.00
Survival rate of cancer cells in primary screening (MCF7): 1.00
Survival rate of cancer cells in primary screening (Hela): 1.00
Survival rate of cancer cells in primary screening (LCC): 1.00

PVCRKEKKDGKRCVARYVEHFAGKDRRMQA [pACP1505]
Survival rate of cancer cells in primary screening (HT29): 1.00
Survival rate of cancer cells in primary screening (Caco2): 1.00
Survival rate of cancer cells in primary screening (HCT116): 1.00
Survival rate of cancer cells in primary screening (CT26): 1.00
Survival rate of cancer cells in primary screening (MDA-MB-231): 1.00
Survival rate of cancer cells in primary screening (MDA-MB-436): 1.00
Survival rate of cancer cells in primary screening (MDA-MB-453): 1.00
Survival rate of cancer cells in primary screening (MDA-MB-468): 1.00
Survival rate of cancer cells in primary screening (SK-BR-3): 1.00
Survival rate of cancer cells in primary screening (BT474): 1.00
Survival rate of cancer cells in primary screening (T47D): 0.76
Survival rate of cancer cells in primary screening (EFM192A): 1.00
Survival rate of cancer cells in primary screening (B16): 0.78
Survival rate of cancer cells in primary screening (MCF7): 1.00
Survival rate of cancer cells in primary screening (Hela): 1.00
Survival rate of cancer cells in primary screening (LCC): 1.00

QESDAKKYGVGGYFQGLLSQ [pACP1529]
Survival rate of cancer cells in primary screening (HT29): 1.00
Survival rate of cancer cells in primary screening (Caco2): 1.00
Survival rate of cancer cells in primary screening (HCT116): 1.00
Survival rate of cancer cells in primary screening (CT26): 1.00
Survival rate of cancer cells in primary screening (MDA-MB-231): 1.00
Survival rate of cancer cells in primary screening (MDA-MB-436): 1.00
Survival rate of cancer cells in primary screening (MDA-MB-453): 1.00
Survival rate of cancer cells in primary screening (MDA-MB-468): 1.00
Survival rate of cancer cells in primary screening (SK-BR-3): 1.00
Survival rate of cancer cells in primary screening (BT474): 1.00
Survival rate of cancer cells in primary screening (T47D): 0.75
Survival rate of cancer cells in primary screening (EFM192A): 1.00
Survival rate of cancer cells in primary screening (B16): 1.00
Survival rate of cancer cells in primary screening (MCF7): 1.00
Survival rate of cancer cells in primary screening (Hela): 1.00
Survival rate of cancer cells in primary screening (LCC): 1.00

RCPCKGNTHRRYSIMFCNFDCASLLKLLCGFFGKC [pACP1621]
Survival rate of cancer cells in primary screening (HT29): 1.00
Survival rate of cancer cells in primary screening (Caco2): 1.00
Survival rate of cancer cells in primary screening (HCT116): 1.00
Survival rate of cancer cells in primary screening (CT26): 1.00
Survival rate of cancer cells in primary screening (MDA-MB-231): 1.00
Survival rate of cancer cells in primary screening (MDA-MB-436): 1.00
Survival rate of cancer cells in primary screening (MDA-MB-453): 1.00
Survival rate of cancer cells in primary screening (MDA-MB-468): 1.00
Survival rate of cancer cells in primary screening (SK-BR-3): 1.00
Survival rate of cancer cells in primary screening (BT474): 1.00
Survival rate of cancer cells in primary screening (T47D): 0.72
Survival rate of cancer cells in primary screening (EFM192A): 0.79
Survival rate of cancer cells in primary screening (B16): 0.79
Survival rate of cancer cells in primary screening (MCF7): 1.00
Survival rate of cancer cells in primary screening (Hela): 1.00
Survival rate of cancer cells in primary screening (LCC): 1.00

RLIVRMKTLYEKAAQMEIKIVENRFTRHEKKNKINRIKRKREK [pACP1722]
Survival rate of cancer cells in primary screening (HT29): 0.63
Survival rate of cancer cells in primary screening (Caco2): 0.70
Survival rate of cancer cells in primary screening (HCT116): 1.00
Survival rate of cancer cells in primary screening (CT26): 0.35
Survival rate of cancer cells in primary screening (MDA-MB-231): 1.00
Survival rate of cancer cells in primary screening (MDA-MB-436): 0.27
Survival rate of cancer cells in primary screening (MDA-MB-453): 0.11
Survival rate of cancer cells in primary screening (MDA-MB-468): 1.00
Survival rate of cancer cells in primary screening (SK-BR-3): 0.63
Survival rate of cancer cells in primary screening (BT474): 0.14
Survival rate of cancer cells in primary screening (T47D): 0.29
Survival rate of cancer cells in primary screening (EFM192A): 1.00
Survival rate of cancer cells in primary screening (B16): 0.56
Survival rate of cancer cells in primary screening (MCF7): 0.31
Survival rate of cancer cells in primary screening (Hela): 0.13
Survival rate of cancer cells in primary screening (LCC): 1.00
